From patent US20080145313A1, “Compositions and Methods for the Treatment and Prevention of Neoplastic Disorders” (Genesis Research & Development Corporation Limited, priority 2006, published 2008)
Where two headings read alike, the source gives them in different places.

Experiments:
A549 cells [1] = experiment: Growth inhibition of siRNA-transfected A549 cells, SYBR Green I DNA content; format: cell-based, human; conditions: for Growth Inhibition in A549 cells: 10 nM siRNA, DNA content 96 hours after transfection
Method in brief: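 A549 cells reverse-transfected with 10 nM Stealth siRNAs via Lipofectamine RNAiMAX, seeded at 5×10^3 cells/cm^2 in RPMI 1640/10% FCS; non-specific siRNA control. DNA content read 96 h post-transfection by SYBR Green I fluorescence (ex 485/em 535 nm) after freeze-thaw and Triton X-100 lysis; mean of three wells.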

HCT-116 cells = experiment: 5FU toxicity in HCT-116 cells after TYMS or DHFR knockdown, SYBR Green; format: cell-based; conditions: 5FU continuous for 3 days, read-out: IC50 value of 5FU following TYMS knockdown, HCT-116
Method: (§1) HCT-116 and A549 cells were transfected as described above with 0.1, 1.0 and 10 nM of three TYMS-specific siRNAs, labeled TYMS-1, TYMS-2 and TYM-3 (SEQ ID NO: 4833-4835 (DNA), and SEQ ID NO: 5139-5141 (RNA), or 1.0 and 10 nM control siRNAs (809-ctrl; SEQ ID NO: 4805 (DNA), and SEQ ID NO: 5302 (RNA) and 81ctrl; SEQ ID NO: 4804 (DNA), and SEQ ID NO: 5301 (RNA)). HCT-116 and A549 cells were also similarly transfected with 0.1, 1.0 and 10 nM of three DHFR-specific siRNAs, labeled DHFR-1, DHFR-2 and DHFR-3 (SEQ ID NO: 4836-4838 (DNA), and SEQ ID NO: 5142-5144 (RNA)), or control siRNA (SEQ ID NO: 4805 (DNA), and SEQ ID NO: 5302 (RNA)). Twenty four hours after transfection, cells were exposed to 5FU using a serial dilution starting at 44 μM, in medium containing either 10% normal FCS or 10% dialyzed FCS as described above. 5FU treatment was continuous for 3 days, at which time cell growth was analyzed by measuring DNA content per well using the SYBR Green assay outlined above. […] This combinatorial inhibitory effect was further increased when experiments were done in medium containing dialyzed FCS (FIGS. 27D-F; FIGS. 28D-F).
(§2) FIGS. 29 and 30 show transfection with DHFR siRNA similarly led to a dose-dependent increase in growth inhibition above that caused by the drug alone (control siRNA-transfected cells) in HCT-116 cells (FIGS. 29A-C), and A549 cells (FIGS. 30A-C). This combinatorial inhibitory effect was further increased when experiments were done in medium containing dialyzed FCS (FIGS. 29D-F; FIGS. 30D-F). The changes in the IC50 value for 5FU in HCT-116 and A549 cells following TYMS knockdown by individual siRNAs are listed in Table 16 below.

A549 cells [2] = experiment: 5FU toxicity in A549 cells after TYMS or DHFR knockdown, SYBR Green; format: cell-based, human; conditions: 5FU continuous for 3 days, read-out: IC50 value of 5FU following TYMS knockdown, A549
Method: as §1, §2

A549 xenograft tumor = experiment: Xenograft tumor growth of A549 cells transfected with siRNA pre-implantation in CD-1 nude mice; format: in vivo, mouse; conditions: for tumor growth inhibition compared to the control groups: cells transfected pre-implantation, monitored 33 or 26 days; for tumor growth rate compared to control groups: A549 cells transfected with siRNA before s.c. inoculation
Method: To determine the effect of RRM1 knockdown on tumor growth, A549 cells (human lung cancer cell line; ATCC No. CCL-185) were reverse-transfected prior to implantation in CD-1 nude mice. In 175 cm^2 culture flasks, 10×10^6 A549 cells (in RPMI supplemented with 10% fetal calf serum) were added to pre-made lipoplexes. To make lipoplexes, Lipofectamine RNAiMAX in serum-free RPMI was added to an equal volume of serum-free RPMI containing siRNA (RRM1-2; SEQ ID NO: 4831 (DNA), and SEQ ID NO: 5137 (RNA)) and a control siRNA (SEQ ID NO: 4804 (DNA), and SEQ ID NO: 5301 (RNA)). After addition of cells, the final concentration of siRNA in the flask was 10 nM. Untransfected cells served as a further control. Flasks were incubated at 37° C. for 24 h to allow transfection to proceed.
The cells were harvested by trypsinization 24 h after the transfection, washed twice in PBS and viable cells were counted. Equal numbers of cells (1×10^7) were inoculated into CD-1 nude mice (n=7-9). Briefly, 5 to 7 weeks old nude mice were subcutaneously (s.c.) injected in the right flank with A549 cells in 100 μl PBS. Tumor growth was monitored 3 times per week by measuring tumor sizes using a digital caliper. Tumor volume was expressed in […] using the formula: V=a^2×b×0.52, where a and b represent the minimum and maximum tumor diameter, respectively. Mean tumor volumes calculated from each measurement were then plotted in a standard graph to compare the tumor growth of transfected cells to that of control.
To determine the effect of siRNA-mediated knockdown of HK-II, CAD, IMPDH2, RRM2, SLC16A1 and SLC29A1 on tumor growth, A549 cells (human lung cancer cell line; ATCC No. CCL-185) were reverse-transfected prior to implantation in CD-1 nude mice as described above with siRNAs given in SEQ ID NO: 5307 (DNA), and SEQ ID NO: 5304 (RNA) for RRM2, SEQ ID NO: 4932 (DNA), and SEQ ID NO: 5227 (RNA) for ENT1, SEQ ID NO: 4813 (DNA), and SEQ ID NO: 5119 (RNA) for HK-II, SEQ ID NO: 4827 (DNA), and SEQ ID NO: 5133 (RNA) for CAD, SEQ ID NO: 4879 (DNA), and SEQ ID NO: 5182 (RNA) for IMPDH2 and SEQ ID NO: 4924 (DNA), and SEQ ID NO: 5219 (RNA) for SLC16A1, respectively. The siRNA given in SEQ ID NO: 4804 (DNA), and SEQ ID NO: 5301 (RNA) was used as control.
In two separate experiments, CD-1 mice were divided into five groups that received untransfected A549 cells, cells transfected with control siRNA or three different siRNAs (as listed above), respectively. Cells were transfected in vitro using the method as described in Example 8, and 24 h after transfection, s.c. inoculated into mice. Tumor growth was measured 3 times per week. In the first experiment, mice received cells transfected with siRNA targeting RRM2, HK-II or SLC29A1 and were monitored for 33 days. In the second experiment, mice received cells transfected with siRNA targeting CAD, IMPDH2 or SLC16A1, and were monitored for 26 days. […] Similarly, preliminary data indicated tumor growth rate was reduced for the groups receiving cells transfected with siRNA targeting CAD and SLC16A1. Twenty-six days after cell inoculation, the tumor volume for mice with cells transfected with siRNA targeting CAD or SLC16A1 was 97.2±7.3 mm^3 or 110.1±28.1 mm^3, respectively.

[3] = cells transfected with 0.1 nM siRNA
[4] = cells transfected with 1 nM siRNA
[5] = cells transfected with 10 nM siRNA

Substance	Growth Inhibition in A549 cells (A549 cells [1])	IC50 (HCT-116 cells; [3]) [nM]	IC50 (HCT-116 cells; [5]) [nM]	IC50 (A549 cells [2]; [3]) [nM]	IC50 (A549 cells [2]; [4]) [nM]	IC50 (A549 cells [2]; [5]) [nM]	further results
SEQ ID NO: 4835: siRNA targeting TYMS (chain 1 ATTCAGGTAAATATGTGCATCTCCC; chain 2 AUUCAGGUAAAUAUGUGCAUCUCCC; chemistry not given here; one strand in two spellings)	++ (inhibits by at least 75%)	320	110	610	130	200	IC50 (HCT-116 cells; [4]): 190 nM
SEQ ID NO: 4813: siRNA targeting HK-II (chain 1 AATGAGACCAATCTCACAGTTGTGG; chain 2 AAUGAGACCAAUCUCACAGUUGUGG; chemistry not given here; one strand in two spellings)	++ (inhibits by at least 75%)						tumor growth inhibition compared to the control groups (A549 xenograft tumor): No tumor growth inhibition
SEQ ID NO: 4827: siRNA targeting CAD (chain 1 TTCAAGAGAATTTGCTGCCTCGCTC; chain 2 UUCAAGAGAAUUUGCUGCCUCGCUC; chemistry not given here; one strand in two spellings)	+ (inhibits by at least 50%)						tumor growth rate compared to control groups (A549 xenograft tumor): reduced; tumor volume (A549 xenograft tumor; twenty-six days after cell inoculation, preliminary data): 97.2±7.3 mm^3
SEQ ID NO: 4831: Stealth siRNA targeting RRM1 (chain 1 TAGAAGTGCATACTAGTGAGTTTGC; chain 2 UAGAAGUGCAUACUAGUGAGUUUGC; Stealth siRNA, chemical pattern not given here; one strand in two spellings)	++ (inhibits by at least 75%)						growth inhibition, A549 (A549 cells [1]; 0.1 nM siRNA, 96 h post-transfection, normalized to control siRNA): 50%; mice with measurable tumors (A549 xenograft tumor; A549 cells transfected with 10 nM siRNA 24 h before s.c. inoculation): two of eight; tumor growth rate compared to control groups (A549 xenograft tumor): reduced dramatically; average tumor size (A549 xenograft tumor; six weeks after the cell inoculation, 10 nM siRNA pre-implantation): 49.1±18.4 mm^3
SEQ ID NO: 4805: non-specific control siRNA (chain 1 GGGAAATGTCTCCTCCCATTGATTT; chain 2 GGGAAAUGUCUCCUCCCAUUGAUUU; chemistry not given here; one strand in two spellings) [reference compound]		650	600	820	670	640	IC50 (HCT-116 cells; [4]): 600 nM
SEQ ID NO: 4834: siRNA targeting TYMS (chain 1 TGTGGATCCCTTGATAAACCACAGC; chain 2 UGUGGAUCCCUUGAUAAACCACAGC; chemistry not given here; one strand in two spellings)	++ (inhibits by at least 75%)	410	100	590	210	150	
SEQ ID NO: 4879: siRNA targeting IMPDH2 (chain 1 AATACCGCCTGTAAGCGCCATTGCT; chain 2 AAUACCGCCUGUAAGCGCCAUUGCU; Both strands are one antisense strand in DNA/RNA notation, chemistry not given here, further chemistry not given here; one strand in two spellings)	++ (inhibits by at least 75%)						tumor growth inhibition compared to the control groups (A549 xenograft tumor): No tumor growth inhibition
